By inhibition is commonly meant the change of the read-out against control, counted positive when it falls. The term pIC50 denotes −log10 of the IC50, conventionally taken in molar units.

For series [1] the following is noted: reputed; EPO Publication No. 0184162; cited from earlier work.
The subject of a further series is mouse T lymphocytes. Kind of series: T-cell proliferation assay (ionomycin plus PMA induced T-cell stimulation, tritiated thymidine uptake). The series is classed as cell-based, mouse (C57B1/6). To be noted: for pIC50: T-cell proliferation. How it is done:
The principle of this assay is to measure the proliferation of mouse T lymphocytes stimulated with the combination of ionomycin plus PMA. A positive sample in this assay will inhibit T-cell proliferation, as indicated by reduced tritiated thymidine uptake.
Purified L-687,795, as prepared by HPLC above, was dissolved in absolute ethanol at 10 mg/ml.
Spleens from C57B1/6 mice were taken under sterile conditions and gently dissociated in ice-cold RPMI 1640 culture medium (GIBCO, Grand Island, N.Y.) supplemented with 10% heat-inactivated fetal calf serum (GIBCO). Cells were pelleted by centrifugation at 1500 rpm for 8 minutes. Contaminating red cells were removed by treating the pellet with ammonium chloride lysing buffer (GIBCO) for 2 minutes at 4° C. Cold medium was added and cells were again centrifuged at 1500 rpm for 8 minutes. T lymphocytes were then isolated by separation of the cell suspension on nylon wool columns as follows: Nylon wool columns were prepared by packing approximately 4 grams of washed and dried nylon wool into 20 ml plastic syringes. The columns were sterilized by autoclaving at 250° F for 30 minutes. Nylon wool columns were wetted with warm (37° C) culture medium and rinsed with the same medium. Washed spleen cells resuspended in warm medium were slowly applied to the nylon wool. The columns were then incubated in an upright position at 37° C for 1 hour. Non-adherent T lymphocytes were eluted from the columns with warm culture medium and the cell suspensions were spun as above.
Purified T lymphocytes were resuspended at 2.5×10^5 cells/ml in complete culture medium composed of RPMI 1640 medium with 10% heat-inactivated fetal calf serum, […], 1 mM sodium pyruvate, 2×10^-5 M 2-mercaptoethanol and 50 μg/ml gentamycin. Ionomycin was added at 250 ng/ml and PMA at 10 ng/ml. The cell suspension was immediately distributed into 96 well flat-bottom microculture plates (Costar) at 200 μl/well. The control, being the medium without test drug, and various below-indicated dilutions of the sample (above-describedpurified L-687,795) to be tested were then added in triplicate wells at 20 μl/well. L-683,590 was used as a standard. The culture plates were then incubated at 37° C. in a humidified atmosphere of 5% CO2 -95% air for 44 hours. The proliferation of T lymphocytes was assessed by measurement of tritiated thymidine incorporation. After 44 hours of culturing, the cells were pulse-labelled with 2 μ Ci/well of tritiated thymidine (NEN, Cambridge, MA). After another 4 hours of incubation, cultures were harvested on glass fiber filters using a multiple sample harvester. Radioactivity of filter discs corresponding to individual wells was measured by standard liquid scintillation counting methods (Betacounter). Mean counts per minute of replicate wells were calculated and the results expressed as percent inhibition of tritiated thymidine uptake (proliferation) as follows: [formula]
1. Mouse T cell cultures were pulsed with ^3 Hthymidine for 4 hours
prior to harvesting at 48 hours.

Series [2] in a line: Solubility (physical characteristics). The series is classed as physicochemical. To be noted: methanol.

pIC50: −log10 of the molar value. Entries after “also recorded” stand apart in the source; their conditions may differ. Like-named read-outs stand apart in the source and are kept apart here.

Consider `C=CC[C@@H]1/C=C(\C)C[C@H](C)C[C@H](OC)[C@H]2O[C@@](O)(C(=O)C(=O)N3CCCC[C@H]3C(=O)O[C@H](/C(C)=C/[C@@H]3CC[C@@H](O)[C@H](OC)C3)[C@H](C)[C@@H](O)CC1=O)[C@H](C)C[C@@H]2OC` [FK-506], for which the “times more effective than cyclosporin” value in series [1] is listed as 100 times.

Turning to `CC[C@@H]1/C=C(\C)C[C@H](C)C[C@H](OC)[C@H]2O[C@@](O)(C(=O)C(=O)N3CCCC[C@H]3C(=O)O[C@H](/C(C)=C/[C@@H]3CC[C@@H](O)[C@H](OC)C3)[C@H](C)[C@@H](O)CC1=O)[C@H](C)C[C@@H]2OC` [L-683,590, reference compound], in the series on mouse T lymphocytes (Mus musculus, T-lymphocyte, 10 ng/ml, standard), the inhibition at 0.01 µg/mL was determined as 99%.

In the case of `CCC1C=C(C)CC(C)CC(O)C(O)C2CC(C)C(O)(O2)C(=O)C(=O)N2CCCCC2C(=O)OC(C(C)=CC2CCC(O)C(O)C2)C(C)C(O)CC1=O` [L-687,795], in the series with mouse T lymphocytes (50 units/m recombinant human IL2 added at initiation of culture), the “Inhibition of proliferation on addition of recombinant human IL2” value was “reversed”. Also, the inhibition at 0.39 µg/mL in the series on mouse T lymphocytes (Mus musculus, T-lymphocyte, 390 ng/ml, ionomycin + PMA, 48 h) was 0%. Also, the inhibition at 0.57 µg/mL in the series on mouse T lymphocytes (Mus musculus, T-lymphocyte, 570 ng/ml, ionomycin + PMA, 48 h) turned out to be 2%. Moreover, the inhibition at 0.87 µg/mL in the series on mouse T lymphocytes (Mus musculus, T-lymphocyte, 870 ng/ml, ionomycin + PMA, 48 h) turned out to be 29%. For the same molecule, the inhibition at 1.3 µg/mL in the series with mouse T lymphocytes (Mus musculus, T-lymphocyte, 1,300 ng/ml, ionomycin + PMA, 48 h) stood at 60%. For the same molecule, the inhibition at 1.9 µg/mL in the series on mouse T lymphocytes (Mus musculus, T-lymphocyte, 1,900 ng/ml, ionomycin + PMA, 48 h) turned out to be 78%. The inhibition at 2.9 µg/mL with mouse T lymphocytes (Mus musculus, T-lymphocyte, 2,900 ng/ml, ionomycin + PMA, 48 h) is 81%. For the same molecule, in the series with mouse T lymphocytes (Mus musculus, T-lymphocyte, 4,400 ng/ml, ionomycin + PMA, 48 h), the inhibition at 4.4 µg/mL was found to be 88%. In addition, in the series with mouse T lymphocytes (Mus musculus, T-lymphocyte, 6,600 ng/ml, ionomycin + PMA, 48 h), the inhibition at 6.6 µg/mL was 90%. The inhibition at 10 µg/mL with mouse T lymphocytes (Mus musculus, T-lymphocyte, 10,000 ng/ml, ionomycin + PMA, 48 h) was found to be 91%. Further, the pIC50 with mouse T lymphocytes (Mus musculus, T-lymphocyte, general range, read-out: IC50, generally in the range of) is 5.85 to 6.00; with mouse T lymphocytes (Mus musculus, T-lymphocyte, read-out: IC50) it was 5.93. Further, the “inhibition of T-cell activation / immunosuppressive activity by the T-cell proliferation assay” value in the series on mouse T lymphocytes (qualitative) was “positive inhibition of T-cell activation; also recorded: positive immunosuppressive activity”. The Solubility entry in series [2] is “Solubility in methanol”.

These data come from US4987139A, “FK-520 microbial transformation product” (Merck & Co., Inc., priority 1989, dated 1991).
